Read-outs that look alike come from different tables or passages of the source. A value given as a limit tells only on which side of the number the result lay.

The target in one experiment is T1, FSHR (Homo sapiens, UniProt P23945).
T1 construct: expressed in transfected cells; host or cells: CHO (Cho-FSHR-LUC-1-1-43)
Kind of experiment: EC50 of cyclic AMP production in CHO FSHR cells + EC20 FSH (Assay A). The format is cell-based. The procedure, abridged:
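cAMP HTRF ratio (665/620 nm) read after 1 h, 37 °C exposure of CHO-FSHR cells to compound in presence of EC20 FSH ([…]) and IBMX 200 μM. Responses given relative to FSH standard maximum; EC50 derived.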

Experiment [1] has as its target T2, follicle-stimulating hormone (FSH) receptor (Rattus norvegicus, UniProt P20395).
T2 construct: endogenous in cells; host or cells: rat granulosa cells
T2 sequence (P20395 18-692): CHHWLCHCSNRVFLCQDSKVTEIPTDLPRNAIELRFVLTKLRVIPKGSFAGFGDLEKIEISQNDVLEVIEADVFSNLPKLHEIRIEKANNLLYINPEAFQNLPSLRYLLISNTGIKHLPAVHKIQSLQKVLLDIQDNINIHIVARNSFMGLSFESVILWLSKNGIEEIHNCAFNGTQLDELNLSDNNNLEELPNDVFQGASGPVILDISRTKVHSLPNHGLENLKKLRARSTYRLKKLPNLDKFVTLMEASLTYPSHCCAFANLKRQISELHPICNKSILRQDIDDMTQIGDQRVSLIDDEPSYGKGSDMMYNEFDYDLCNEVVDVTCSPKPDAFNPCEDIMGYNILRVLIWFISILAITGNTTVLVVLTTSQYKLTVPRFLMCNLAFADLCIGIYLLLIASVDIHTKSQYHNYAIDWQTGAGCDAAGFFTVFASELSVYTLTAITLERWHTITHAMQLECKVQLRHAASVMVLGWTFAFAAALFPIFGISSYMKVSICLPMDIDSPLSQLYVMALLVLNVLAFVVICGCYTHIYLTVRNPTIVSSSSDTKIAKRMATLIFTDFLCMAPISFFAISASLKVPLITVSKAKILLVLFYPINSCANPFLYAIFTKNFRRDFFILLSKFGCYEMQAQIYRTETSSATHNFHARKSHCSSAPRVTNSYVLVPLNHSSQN
The experiment is described as follows: Rat granulosa EC50 FSH (Assay B). Conditions: rat granulosa cells. The format is cell-based. The procedure:
Example 11: Rat Granulosa EC50 FSH (Assay B)
The assay was performed pursuant to the teaching of Yanofsky et al. (2006) Allosteric activation of the follicle-stimulating hormone (FSH) receptor by selective, nonpeptide agonists. JBC 281(19): 13226-13233, which is incorporated by reference in the disclosure of the invention.

Setting [2] is: CHO FSHR cells + EC20 FSH, Table 2, read-out: Assay A EC50 of cyclic AMP production.
The mark [3] stands for this setting: CHO FSHR cells + EC20 FSH, Table 1, read-out: Assay A EC50 of cyclic AMP production.

T1 sequence (P23945 18-695): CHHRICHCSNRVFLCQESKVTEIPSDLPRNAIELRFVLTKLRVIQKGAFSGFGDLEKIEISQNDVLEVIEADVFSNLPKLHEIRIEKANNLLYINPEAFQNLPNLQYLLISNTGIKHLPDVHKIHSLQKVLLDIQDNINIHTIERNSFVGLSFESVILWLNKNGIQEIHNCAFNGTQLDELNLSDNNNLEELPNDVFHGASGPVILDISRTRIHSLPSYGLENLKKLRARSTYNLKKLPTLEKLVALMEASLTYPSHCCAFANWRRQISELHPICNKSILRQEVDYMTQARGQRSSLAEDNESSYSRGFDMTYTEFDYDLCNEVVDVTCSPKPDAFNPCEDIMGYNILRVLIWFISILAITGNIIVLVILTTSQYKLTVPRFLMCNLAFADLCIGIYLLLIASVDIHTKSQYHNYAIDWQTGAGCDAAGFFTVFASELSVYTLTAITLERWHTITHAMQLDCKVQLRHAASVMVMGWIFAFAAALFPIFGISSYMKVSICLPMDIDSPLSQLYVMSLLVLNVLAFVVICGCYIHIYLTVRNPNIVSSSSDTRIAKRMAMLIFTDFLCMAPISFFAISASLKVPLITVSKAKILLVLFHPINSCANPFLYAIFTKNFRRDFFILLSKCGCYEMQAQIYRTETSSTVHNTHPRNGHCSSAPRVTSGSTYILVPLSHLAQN
T1 sequence (P01215 25-116 partner): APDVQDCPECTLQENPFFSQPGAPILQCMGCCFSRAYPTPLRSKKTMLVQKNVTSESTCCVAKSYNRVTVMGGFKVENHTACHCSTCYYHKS
T1 sequence (P01225 19-129 partner): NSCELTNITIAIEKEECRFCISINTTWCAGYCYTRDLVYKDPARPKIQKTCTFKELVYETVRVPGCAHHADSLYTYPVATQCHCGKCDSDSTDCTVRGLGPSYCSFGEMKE

The term EC50 denotes the concentration giving half of the maximal effect. Regarding `Cc1ccccc1N1CCN(c2ccc(C(=O)NCCS(=O)(=O)N3CCCC3)cc2NC(=O)c2coc(C3CC3)n2)CC1` [Compound 344], the EC50 is 1000 to 10000 nM on FSHR (setting [2]) and 100 to 1000 nM in experiment [1] (Table 2).

For the molecule `Cc1ccccc1N1CCN(c2ccc(C(=O)NCCCN3C(=O)[C@H]4C[C@@H]3C(O)C4O)cc2NC(=O)c2coc(C3CC3)n2)CC1` (some centres unmarked) [Compound 365], the results for the EC50 (on FSHR (setting [2]); in experiment [1] (Table 2)) were 100 to 1000 nM and below 100 nM, respectively.

Regarding `Cc1ccc(C(=O)Nc2cc(C(=O)NCCCN3CCCC3=O)ccc2N2CCN(c3ccccc3C3CC3)CC2)o1` [Compound 523], the concentration for a half-maximal effect (EC50) (on FSHR (setting [2]); in experiment [1] (Table 2)) was 100 to 1000 nM each time.

As to `Cc1ccccc1N1CCN(c2ccc(C(=O)NCCCN3CCOC3=O)cc2NC(=O)c2ccco2)CC1` [Compound 155], the values for the EC50 (at FSHR (setting [3]); in experiment [1] (Table 1)) were 100 to 1000 nM and 1000 to 10000 nM, respectively.

Consider `Cc1ccccc1N1CCN(c2ccc(C(=O)NCCCN3CCCC3=O)cc2NC(=O)c2coc(C3CC3)n2)CC1` [Compound 105], for which the values for the EC50 (at FSHR (setting [3]); in experiment [1] (Table 1)) were below 100 nM and 100 to 1000 nM, respectively.

`Cc1nc(C(=O)Nc2cc(C(=O)NCCCN3CCCC3=O)ccc2N2CCN(c3ccccc3C)CC2)cs1` [Compound 74]: the EC50 (on FSHR (setting [3]); in experiment [1] (Table 1)) was 100 to 1000 nM each time.

Consider `Cc1ccccc1N1CCN(c2ccc(C(=O)N3CCC4(CCOC4)CC3)cc2NC(=O)c2ccco2)CC1` [Compound 224], for which the activation at 5 µM at FSHR (1 h, 5 μM, effect relative to maximum response of the FSH standard, Table 1) was 10%. Also, the EC50 in experiment [1] (Table 1) was 1000 to 10000 nM.

Consider `Cc1ccc(C(=O)Nc2cc(C(=O)NCCCCO)ccc2N2CCN(c3ccccc3C)CC2)o1` [Compound 241, 5-Methyl-furan-2-carboxylic acid [5-(4-hydroxy-butylcarbamoyl)-2-(4-o-tolyl-piperazin-1-yl)-phenyl]-amide], for which, at FSHR (setting [3]), the EC50 was 100 to 1000 nM. In addition, the “Assay B % at 5 μM” value in experiment [1] (Table 1) came to 177%.

`Cc1nc(C)n(CCCNC(=O)c2ccc(N3CCN(c4ccccc4C)CC3)c(NC(=O)c3coc(C4CC4)n3)c2)n1` [Compound 394]: the EC50 at FSHR (setting [2]) fell in the range of 100 to 1000 nM. Moreover, the “Assay B % at 1.25 μM” value in experiment [1] (Table 2) came out at 50%.

Regarding `C#Cc1ccc(C(=O)Nc2cc(C(=O)NCCCN3CCCC3=O)ccc2N2CCN(c3ccccc3C)CC2)o1` [Compound 176, 5-ethynyl-furan-2-carboxylic acid [5-[3-(2-oxo-pyrrolidin-1-yl)-propylcarbamoyl]-2-(4-o-tolyl-piperazin-1-yl)-phenyl]-amide], the EC50 on FSHR (setting [3]) was in the range of 100 to 1000 nM; in experiment [1] (Table 1) it was 1000 to 10000 nM.

For `Cc1ccccc1N1CCN(c2ccc(C(=O)NCCCN3CCCC3=O)cc2NC(=O)c2ccc(F)cc2)CC1` [Compound 31], the EC50 (on FSHR (setting [3]); in experiment [1] (Table 1)) was 100 to 1000 nM each time.

For the molecule `Cc1ccccc1N1CCN(c2ccc(C(=O)NCCCN3CCCC3=O)cc2NC(=O)c2ccc(Br)o2)CC1` [Compound 143, 5-Bromo-furan-2-carboxylic acid [5-[3-(2-oxo-pyrrolidin-1-yl)-propylcarbamoyl]-2-(4-o-tolyl-piperazin-1-yl)-phenyl]-amide], the EC50 (on FSHR; in experiment [1] (Table 1)) was 100 to 1000 nM in each case.

In the case of `Cc1ccccc1N1CCN(c2ccc(C(=O)NCCCN3CCCC3=O)cc2NC(=O)c2ccc(Cl)o2)CC1` [Compound 135], the EC50 (at FSHR (setting [3]); in experiment [1] (Table 1)) was 100 to 1000 nM in each case.

Take `Cc1ccccc1N1CCN(c2ccc(C(=O)NCCCN3CCCC3=O)cc2NC(=O)c2cscn2)CC1` [Compound 73]: the EC50 was in the range of 100 to 1000 nM at FSHR (setting [3]) and 1000 to 10000 nM in experiment [1] (Table 1).

For the molecule `Cc1ccccc1N1CCN(c2ccc(C(=O)NCCCN3C(=O)CSC3=O)cc2NC(=O)c2ccco2)CC1` [Compound 150], the EC50 (at FSHR (setting [3]); in experiment [1] (Table 1)) was 100 to 1000 nM in each case.

As for `Cc1ccccc1N1CCN(c2ccc(C(=O)NCc3cccc(C(N)=O)c3)cc2NC(=O)c2coc(C3CC3)n2)CC1` [Compound 304], at FSHR (setting [2]), the half-maximal effective concentration (EC50) is below 100 nM. Also, the “Assay B % at 1.25 μM” value in experiment [1] (Table 2) was 79%.

As for `O=C(NCCCN1CCCC1=O)c1ccc(N2CCN(c3ncccc3Cl)CC2)c(NC(=O)c2coc(C3CC3)n2)c1` [Compound 510], the EC50 at FSHR (setting [2]) is below 100 nM; in experiment [1] (Table 2), 1000 to 10000 nM.

Consider `Cc1ccc(C(=O)Nc2cc(C(=O)NCCCN3CCCC3=O)ccc2N2CCN(c3ccccc3C)CC2)cc1` [Compound 35], for which the results for the EC50 (at FSHR (setting [3]); in experiment [1] (Table 1)) were 100 to 1000 nM and 1000 to 10000 nM, respectively.

On to `Cc1ccc(CNc2cc(C(=O)NCCCN3CCCC3=O)ccc2N2CCN(c3ccccc3C)CC2)o1` [Compound 410], for which the figures for the EC50 (on FSHR (setting [2]); in experiment [1] (Table 2)) were 100 to 1000 nM and 1000 to 10000 nM, respectively.

`COc1ccnc(N2CCN(c3ccc(C(=O)NCCCN4CCCC4=O)cc3NC(=O)c3coc(C4CC4)n3)CC2)n1` [Compound 601]: the EC50 on FSHR (setting [2]) was 100 to 1000 nM; in experiment [1] (Table 2), 1000 to 10000 nM.

Turning to `Cc1ccccc1N1CCN(c2ccc(C(=O)NCCc3c[nH]cn3)cc2NC(=O)c2ccco2)CC1` [Compound 15], the EC50 (on FSHR (setting [3]); in experiment [1] (Table 1)) was 100 to 1000 nM in each case.

Turning to `Cc1ccccc1N1CCN(c2ccc(C(=O)NCCCN3CCCC3=O)cc2NC(=O)c2ccn(C)n2)CC1` [Compound 435], the EC50 (at FSHR (setting [2]); in experiment [1] (Table 2)) was 100 to 1000 nM throughout.

`Cc1ccccc1N1CCN(c2ccc(C(=O)NCCCc3nn[nH]n3)cc2NC(=O)c2coc(C3CC3)n2)CC1` [Compound 392]: the results for the EC50 (at FSHR (setting [2]); in experiment [1] (Table 2)) were below 100 nM and 100 to 1000 nM, respectively.

On to `O=C(NCC1CCCO1)c1ccc(N2CCN(Cc3ccccc3)CC2)c(NC(=O)c2ccccc2Cl)c1` (centres unmarked) [Compound 3], for which, on FSHR (setting [3]), the EC50 lay in the range of 100 to 1000 nM. The “Assay B % at 5 μM” value in experiment [1] (Table 1) worked out at 10%.

On to `Cc1ccccc1N1CCN(c2ccc(C(=O)NCCCc3cn[nH]c3)cc2NC(=O)c2ccco2)CC1` [Compound 152], for which the EC50 was 100 to 1000 nM at FSHR (setting [3]) and below 100 nM in experiment [1] (Table 1).

As for `CCc1nc(C(=O)Nc2cc(C(=O)NCCCN3CCCC3=O)ccc2N2CCN(c3ccccc3C)CC2)co1` [Compound 79], the EC50 (on FSHR (setting [3]); in experiment [1] (Table 1)) was 100 to 1000 nM each time.

In the case of `Cc1csc(C(=O)Nc2cc(C(=O)NCCCN3CCCC3=O)ccc2N2CCN(c3ccccc3C)CC2)n1` [Compound 203], the EC50 (on FSHR (setting [3]); in experiment [1] (Table 1)) was 100 to 1000 nM each time.

In the case of `Cc1ccc(C(=O)Nc2cc(C(=O)NCCCN3CCOC3=O)ccc2N2CCN(c3ccccc3C)CC2)o1` [Compound 322], the figures for the EC50 (at FSHR (setting [2]); in experiment [1] (Table 2)) were 100 to 1000 nM and 1000 to 10000 nM, respectively.

The values above are taken from US9938262B2, “Benzamides” (Merck Patent GmbH, priority 2011, dated 2018).
